Test results from the supplement of paper PMC10627819.

How the values were obtained:
S. aureus Newman [1] = experiment: fitness (endpoint OD595 vs no drug) (fraction); higher = more growth
Outline: (§1)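 With the first reading as background, OD595 was measured every 30 min for 14 h in 384-well plates kept at 37 °C and inoculated at OD595 0.01. TSB, LB Lennox or CY was the medium. Fitness is the optical density at the transition into stationary phase divided by the robust mean of no-drug control wells, with a cap of 1.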

S. pneumoniae D39V [2] = experiment: as above
Outline: as §1

S. aureus DSM 20231 [3] = experiment: as above
Outline: as §1

B. subtilis 168 = experiment: Bliss interaction score (quartile over a dose matrix) (fitness difference); higher = more antagonism (negative = synergy)
Outline: (§2)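 Values were capped at 1 after dividing OD595 at stationary-phase entry by the plate's robust no-drug mean. This ratio is fitness, and single-drug fitness was inferred from the combination data. The Bliss score is observed minus product-expected fitness, given as quartiles over technical, biological and donor/recipient replicates.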

S. aureus Newman [4] = experiment: as above
Outline: as §2

S. pneumoniae D39V [5] = experiment: as above
Outline: as §2

S. aureus DSM 20231 [6] = experiment: as above
Outline: as §2
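For Bliss interaction score (quartile over a dose matrix) in this document: first quartile when negative (synergy) and third quartile when positive (antagonism).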

CC1(C)S[C@@H]2[C@H](NC(=O)[C@H](N)c3ccc(O)cc3)C(=O)N2[C@H]1C(=O)O [Amoxicillin] + CN[C@@H]1[C@H](O)[C@H](NC)[C@H]2O[C@@]3(O)C(=O)C[C@@H](C)O[C@H]3O[C@@H]2[C@H]1O [Spectinomycin]
fitness
Settings | partner 4 µg/mL | partner 8 µg/mL | partner 16 µg/mL
S. aureus DSM 20231 [3], first compound 0.0625 µg/mL | 0.649 | 0.63 | 0.572
S. aureus DSM 20231 [3], first compound 0.125 µg/mL | 0.414 | – | –
S. aureus DSM 20231 [3], first compound 0.25 µg/mL | – | 0.148 | –
S. aureus Newman [1], first compound 0.0625 µg/mL | 0.874 | 0.876 | 0.823
S. aureus Newman [1], first compound 0.125 µg/mL | 0.875 | 0.861 | 0.816
S. aureus Newman [1], first compound 0.25 µg/mL | 0.863 | 0.826 | –
S. pneumoniae D39V [2], first compound 0.0008 µg/mL | 0.962 | 0.911 | –
S. pneumoniae D39V [2], first compound 0.0015 µg/mL | 0.975 | 0.94 | 0.887
S. pneumoniae D39V [2], first compound 0.003 µg/mL | 0.882 | 0.89 | 0.826

one replicate
Settings | fitness
S. aureus DSM 20231 [3], first compound 0.0625 µg/mL, partner 32 µg/mL | 0.533
S. aureus DSM 20231 [3], first compound 0.0625 µg/mL, partner 64 µg/mL | 0.0322
S. aureus DSM 20231 [3], first compound 0.125 µg/mL, partner 32 µg/mL | 0.302
S. aureus DSM 20231 [3], first compound 0.125 µg/mL, partner 64 µg/mL | 0.0172
S. aureus DSM 20231 [3], first compound 0.25 µg/mL, partner 32 µg/mL | 0.0187
S. aureus DSM 20231 [3], first compound 0.25 µg/mL, partner 64 µg/mL | 0.0033
S. aureus DSM 20231 [3], first compound 0.5 µg/mL, partner 4 µg/mL | 0.0014
S. aureus DSM 20231 [3], first compound 0.5 µg/mL, partner 8 µg/mL | 0.0081
S. aureus DSM 20231 [3], first compound 0.5 µg/mL, partner 16 µg/mL | 0
S. aureus Newman [1], first compound 0.0625 µg/mL, partner 32 µg/mL | 0.373
S. aureus Newman [1], first compound 0.0625 µg/mL, partner 64 µg/mL | 0.0208
S. aureus Newman [1], first compound 0.125 µg/mL, partner 32 µg/mL | 0.308
S. aureus Newman [1], first compound 0.125 µg/mL, partner 64 µg/mL | 0.03
S. aureus Newman [1], first compound 0.25 µg/mL, partner 32 µg/mL | 0.141
S. aureus Newman [1], first compound 0.25 µg/mL, partner 64 µg/mL | 0.0162
S. pneumoniae D39V [2], first compound 0.0008 µg/mL, partner 16 µg/mL | 0.951
S. pneumoniae D39V [2], first compound 0.006 µg/mL, partner 4 µg/mL | 0.274
S. pneumoniae D39V [2], first compound 0.006 µg/mL, partner 8 µg/mL | 0.329
S. pneumoniae D39V [2], first compound 0.006 µg/mL, partner 16 µg/mL | 0.416

Settings | Bliss interaction score
B. subtilis 168 | -0.0495
S. aureus DSM 20231 [6] | 0.0589
S. aureus Newman [4] | 0.0408
S. pneumoniae D39V [5] | 0.0712

CC1(C)S[C@@H]2[C@H](NC(=O)[C@H](N)c3ccc(O)cc3)C(=O)N2[C@H]1C(=O)O [Amoxicillin] + O=C(N[C@H](CO)[C@H](O)c1ccc([N+](=O)[O-])cc1)C(Cl)Cl [Chloramphenicol]
fitness
Settings | first compound 0.0625 µg/mL | first compound 0.125 µg/mL | first compound 0.25 µg/mL
S. aureus DSM 20231 [3], partner 0.75 µg/mL | 0.446 | – | 0.041
S. aureus DSM 20231 [3], partner 1.5 µg/mL | 0.323 | 0.162 | 0.0389
S. aureus DSM 20231 [3], partner 3 µg/mL | 0.0721 | 0.0829 | 0.0294
S. aureus Newman [1], partner 0.75 µg/mL | 0.724 | 0.718 | –
S. aureus Newman [1], partner 3 µg/mL | – | 0.139 | –

S. aureus DSM 20231 [3], first compound 0.5 µg/mL, one replicate
Settings | fitness
partner 0.75 µg/mL | 0.0382
partner 1.5 µg/mL | 0.005
partner 3 µg/mL | 0.0307

Settings | Bliss interaction score
B. subtilis 168 | 0.122
S. aureus DSM 20231 [6] | -0.0444
S. aureus Newman [4] | -0.108
S. pneumoniae D39V [5] | 0.165
